Measurements: US20100197601A1, “USE OF A FIBRINOGEN RECEPTOR ANTAGONIST AND/OR FOLLICULAR GONADOTROPIN RELEASING PEPTIDE AS A THERAPEUTIC AGENT IN THE TREATMENT OF STREPTOCOCCUS PNEUMONIA INFECTION” (priority 2007, published 2010)
Primed or numbered codes have the meaning given here. Where no end group is shown, it is not given here. [ ]: non-standard residue; d: D form. Pen′ = not defined here

Key:
HIV-1IIIB = assay: HIV-1 antiviral assay in CEM-SS cells
HCMV strain AD169 = assay: HCMV plaque formation assay in MRC-5 cells; type: cell-based; conditions: for inhibition of HCMV plaque formation as compared to the virus control experiment: 10 micrograms per ml, 7-10 days
[1] = system: hepatitis B virus (HBV) ayw strain; assay: HBV experimental assay system, HepG2-2.2.15; type: cell-based; conditions: 10 micrograms per ml, six days, HBV DNA by TaqMan PCR, combination 0.95 mole peptide 1 and 1.05 mole peptide 2
Streptococcus pneumoniae = Streptococcus pneumoniae assay; type: cell-based; conditions: 10 micrograms per ml; 5x10^5 CFU/mL; read visually; combination for instance 0.95 mole peptide 1 and 1.05 mole peptide 2
HUVEC = assay: Endothelial tube formation assay; type: cell-based, human; conditions: 10 micrograms per ml, 20 hours
Procedure: The endothelial tube formation assay is based on the ability of endothelial cells to form three-dimensional capillary-like tubular structures when cultured on a gel of basement membrane extract. The endothelial tube formation assay represents a powerful model for studying inhibition and induction of angiogenesis. Pre-labeled HUVEC with Calcein AM were seeded in a 96-well culture plate coated with extracellular metrix (Chemicon international Cat. ECM625) and treated with test peptides—10 micrograms per ml—in full growth medium. Positive control wes vehicle only. The endothelial cells were allowed to form tubes foe 20 hours and were then examined under an inverted fluorescent microscope. Duplicate wells for each treatment were photographed and quantitatively analyzed for an average tubule length using image analysis software ImageProPlus. Raw data were expressed as average tubule lengths in pixels±standard deviation. Statistic p values were computed using the Student's t-test.

[2] = system: Primary Human endothelial cells (HUVEC); assay: Endothelial cell migration assay; type: cell-based; conditions: 10 micrograms per ml, 22 hours, combination peptide 1:peptide 2 1.10 mole:0.90 mole
[3] = system: murine spleen cells restimulated with Ovalbumin; assay: Th1/Th2 cytokine profiling assay; type: cell-based, Balb/c mice; conditions: 10 micrograms per ml
[4] = combination 0.95 mole peptide 1 and 1.05 mole peptide 2

Compound	antiviral activity of positive control compounds (HIV-1) (HIV-1IIIB)	inhibition of HCMV plaque formation as compared to the virus control experiment (HCMV strain AD169)	inhibition of the growth of Streptococcus pneumoniae (Streptococcus pneumoniae) [%]	inhibition of the migration of human endothelial cells [2] [%]	production of TNF-alpha, induced by ([3]; 72 hours) [%]	change of the production of IL-2 [3, 4]	further results
CC(C)(C)NC(=O)[C@@H]1CN(Cc2cccnc2)CCN1C[C@@H](O)C[C@@H](Cc1ccccc1)C(=O)N[C@H]1c2ccccc2C[C@H]1O [indinavir]	expected levels of antiviral activity	–	–	–	–	–	–
Ac-Pen-Arg-Gly-Asp-Cys-OH (Ac-[Pen′]RGDC-OH; reading uncertain; also: printed as Ac-Pen-Arg-Gly-Asp-Cys-OH) [Peptide 1]	–	did not inhibit	100	4	30.0	did not significantly change	inhibition of HBV replication as compared to the virus control infection [1]: no effect; inhibition of the tube formation of human endothelial cells (HUVEC; combination peptide 1:peptide 2 1.10 mole:0.90 mole): 26%; production of IL-4, decreased by ([3]; 72 hours): 44%; production of IL-5, decreased by ([3]; 72 hours): 26.5%; change of the production of IFN-y [3, 4]: did not significantly change
Nc1nc(O)c2ncn(COC(CO)CO)c2n1 [Ganciclovir, reference compound]	–	–	–	–	–	–	antiviral activity of positive control compound (HCMV) (HCMV strain AD169; positive control): expected levels of antiviral activity
Thr-Asp-Thr-Ser-His-His-Asp-Gln-Asp-His-Pro-Thr-Phe-Asn-OH (TDTSHHDQDHPTFN-OH) [Peptide 2]	–	did not inhibit	100	8	34	did not significantly change	increase of the tube formation of endothelial cells (HUVEC): 11%; production of IFN-y, induced by ([3]; 72 hours): 23.4%; production of IL-4, induced by ([3]; 72 hours): 29%; change of the production of IL-5 [3, 4]: did not significantly change
Cc1cn([C@H]2C[C@H](N=[N+]=[N-])[C@@H](CO)O2)c(=O)[nH]c1=O [AZT]	expected levels of antiviral activity	–	–	–	–	–	–
